Measurements from publication PMC8268887, “Peptide/β-Peptoid Hybrids with Ultrashort PEG-Like Moieties: Effects on Hydrophobicity, Antibacterial Activity and Hemolytic Properties” (International Journal of Molecular Sciences, 2021).
≈ marks a conversion by molar mass, not a printed value. Like-named read-outs stand apart in the source and are kept apart here.

Legend:
E. coli NMI 3898/15 = assay type: cell-based, Escherichia coli; settings: NMI 3898/15, 20 h
Description: (§1) MIC values of the peptidomimetics were evaluated by using the modified Hancock lab protocol in non-binding polystyrene microtiter plates. Bacterial suspensions of ~5 × 10^5 CFU/mL in Mueller-Hinton broth (Difco, Sparks, MD, USA) were prepared with Mg^2+ and Ca^2+ concentrations of 4 mg/L each. The compounds were dissolved in H2O and diluted in 0.01% acetic acid, 0.2% BSA (final concentration). Aliquots (11 µL) of test compounds were then transferred to wells containing bacterial suspensions (100 µL). Low-binding sterile tubes and tips (Axygen, Union City, CA, USA) were used for preparation and transfer of the solutions of the compounds. Following incubation for 20 h of the covered plates at 35 °C (±2 °C) with circular shaking at 180 rpm, the MICs were read.

E. coli NMI 3371/16 = assay type: cell-based, Escherichia coli; settings: NMI 3371/16, 20 h
Description: as §1

E. coli ATCC 25922 = assay type: cell-based, Escherichia coli; settings: ATCC 25922, 20 h
Description: as §1

P. aeruginosa PAO1 = assay type: cell-based, Pseudomonas aeruginosa
Description: as §1

[1] = tested on: P. aeruginosa NMI 7197/19; assay type: cell-based, Pseudomonas aeruginosa; settings: NMI 7197/19, 20 h
Description: as §1

[2] = Hydrophobicity by retention in analytical RP-HPLC (% MeCN at peak elution); assay type: physicochemical; settings: for % MeCN at Elution, Aeris Peptide: Phenomenex Aeris Peptide XB-C18 column; for % MeCN at Elution, Aeris Peptide / % MeCN at Elution, Luna Omega / % MeCN at Elution, Supelco Discovery: gradient 0→60% B during 15 min; for % MeCN at Elution, Luna: Phenomenex Luna C18(2) column, RP-HPLC gradient 0→60% B during 15 min, relative hydrophobicity; for % MeCN at Elution, Luna Omega: Phenomenex Luna Omega Polar C18 column; for % MeCN at Elution, Supelco Discovery: Supelco Discovery BIO Wide pore C18 column
Description: For each peptide/β-peptoid hybrid oligomer, the retention time in RP-HPLC was measured on four different columns (details shown in Table 2): Phenomenex Luna C18(2) column (recommended for hydrophobic compounds [49]), Phenomenex Luna Omega Polar C18 column (recommended for both very polar and non-polar compounds [50]) as well as Phenomenex Aeris Peptide XB-C18 [51] and Sigma-Aldrich Supelco Discovery BIO Wide pore C18 [52] columns, which both are recommended for analysis of peptides. The retention times of the compounds on each column were used to calculate the acetonitrile concentration at peak elution (denoted merely as % MeCN; Table 1). As expected, the % MeCN for each compound varied somewhat between the four columns.
Starting materials and solvents were acquired from commercial suppliers (Iris Biotech, Markredwitz, Germany; Fluorochem, Hadfield, UK; and Merck, Darmstadt, Germany) and used without further purification. Water used for analytical and preparative high-performance liquid chromatography (HPLC) was filtered through a 0.22-μm capsule filter using an Evoqua LaboStar Pro TWF UV system. Purity and retention time of each peptidomimetic were determined by analytical HPLC by using a Phenomenex Luna Omega Polar C18 column (150 × 4.6 mm; particle size: 3 μm; pore size: 100 Å) on a Shimadzu Prominence and Shimadzu Nexera system using an aqueous acetonitrile (MeCN, VWR, Søborg, Denmark) gradient with 0.1% trifluoroacetic acid (TFA, Iris Biotech, Markredwitz, Germany) added (eluent A: 5:95 MeCN–H2O + 0.1% TFA, eluent B: 95:5 MeCN–H2O + 0.1% TFA); a flow rate of 0.8 mL/min was used. For elution of peptidomimetics, a linear gradient of 0% to 60% B during 15 min was used with UV detection at λ = 220 nm. […] Retention time of each peptidomimetic was also determined by using a Phenomenex Luna C18(2) column (150 × 4.6 mm; particle size: 3 μm; pore size: 100 Å), a Phenomenex Aeris Peptide XB-C18 column (150 × 4.6 mm; particle size: 3.6 μm; pore size: 100 Å), and a Sigma-Aldrich Supelco Discovery BIO Wide pore C18 column (150 × 4.6 mm, particle size: 3 µm; pore size: 300 Å). For each peptidomimetic, the percentage of MeCN at peak elution was calculated from the retention time by using the following formula:(1) %MeCN =0.95 (0.6Rt/15 min)+0.05 (1−0.6Rt/15 min)

S. aureus ATCC 29213 = assay type: cell-based, Staphylococcus aureus; settings: ATCC 29213, 20 h
Description: as §1

[3] = Determination of hemolytic activity; assay type: cell-based; settings: red blood cell suspension in PBS buffer, human red blood cells at 400 µg/mL, 37 °C
Description: The lysis of human red blood cells was measured almost as previously described, albeit with modifications. In brief, a suspension of freshly drawn human red blood cells (hRBCs) was washed three times with PBS buffer and centrifuged two times for 5 min at 2500 rpm. A two-fold serial dilution of compounds in PBS buffer was prepared. Plates (conical-bottomed 96-well plates) with three replicate wells per dilution, each containing 1% red blood cell suspension, were prepared and dosed with the test compound to achieve a final concentration of 400 μg/mL in a total volume of 100 μL. The plates were incubated (37 °C) for 60 min with mild agitation, and then the cells were pelleted by centrifugation at 1500 rpm for 5 min. The supernatants (50 μL) were then transferred to a fresh 96-well plate, and the concentration of hemoglobin was detected by measuring the OD at 405 nm. The OD of cells incubated with 1% SDS defined 100% hemolysis, while the OD of cells incubated with PBS buffer defined 0% hemolysis. The concentration tested was 400 μg/mL (only average values are stated in Table 5). The percent hemolysis was calculated by using the formula:(3) Hemolysis (%)=100×[Asample−Aneg.control/Apos.control−Aneg.control]

A. baumannii ATCC 19606 = assay type: cell-based, Acinetobacter baumannii; settings: ATCC 19606, 20 h
Description: as §1

A. baumannii NMI 3658/17 = assay type: cell-based, Acinetobacter baumannii; settings: NMI 3658/17, 20 h
Description: as §1

K. pneumoniae ATCC 13883 = assay type: cell-based; settings: ATCC 13883, 20 h
Description: as §1

E. faecalis ATCC 29212 = assay type: cell-based; settings: ATCC 29212, 20 h
Description: as §1

| MIC, E. coli NMI 3898/15 (E. coli NMI 3898/15) [µg/mL] | MIC, E. coli NMI 3371/16 (E. coli NMI 3371/16) [µg/mL] | MIC, EC (E. coli ATCC 25922) [µg/mL] | MIC, PA (P. aeruginosa PAO1; PAO1, 20 h) [µg/mL] | MIC, P. aeruginosa NMI 7197/19 [1] [µg/mL] | % MeCN at Elution, Aeris Peptide [2] [% MeCN] | % MeCN at Elution, Luna [2] [% MeCN] | % MeCN at Elution, Luna Omega [2] [% MeCN] | % MeCN at Elution, Supelco Discovery [2] [% MeCN] | MIC, SA (S. aureus ATCC 29213) [µg/mL] | MIC, AB (A. baumannii ATCC 19606) [µg/mL] | MIC, A. baumannii NMI 3658/17 (A. baumannii NMI 3658/17) [µg/mL] | MIC, KP (K. pneumoniae ATCC 13883) [µg/mL] | MIC, EF (E. faecalis ATCC 29212) [µg/mL] | MIC, PA (P. aeruginosa PAO1; P. aeruginosa PAO1 (WT)) [µg/mL] | SMILES | hemolysis at 60 min [3] [%] |
| --- | --- | --- | --- | --- | --- | --- | --- | --- | --- | --- | --- | --- | --- | --- | --- | --- |
| 16 (≈ 7.97 µM) | 8 (≈ 3.99 µM) | 8 (≈ 3.99 µM) | 32 (≈ 15.9 µM) | >64 | 39.4 | 41.4 | 41.9 | 41.5 | 32 to 64 | 4 (≈ 1.99 µM) | 4 (≈ 1.99 µM) | >64 | >64 |  | NCCCC[C@H](NC(=O)CCN(Cc1ccc(F)cc1)C(=O)[C@H](CCCCN)NC(=O)CCN(Cc1ccc(F)cc1)C(=O)[C@H](CCCCN)NC(=O)CCN(Cc1ccc(F)cc1)C(=O)[C@H](CCCCN)NC(=O)CCN(Cc1ccc(F)cc1)C(=O)[C@H](CCCCN)NC(=O)CCN(Cc1ccc(F)cc1)C(=O)[C@H](CCCCN)NC(=O)COCCOCCN)C(=O)N(CCC(N)=O)Cc1ccc(F)cc1 [Compound 2, H-sPEG2-[X]6-NH2] | 2.4 |
| 16 (≈ 7.59 µM) | 8 (≈ 3.79 µM) | 8 (≈ 3.79 µM) | 32 to 64 | >64 | 39.6 | 41.9 | 42.4 | 42.6 |  | 4 to 8 | 4 to 8 | >64 | >64 |  | NCCCC[C@H](NC(=O)CCN(Cc1ccc(F)cc1)C(=O)[C@H](CCCCN)NC(=O)CCN(Cc1ccc(F)cc1)C(=O)[C@H](CCCCN)NC(=O)CCN(Cc1ccc(F)cc1)C(=O)[C@H](CCCCN)NC(=O)CCN(Cc1ccc(F)cc1)C(=O)[C@H](CCCCN)NC(=O)CCN(Cc1ccc(F)cc1)C(=O)[C@H](CCCCN)NC(=O)CCOCCOCCOCCOCCN)C(=O)N(CCC(N)=O)Cc1ccc(F)cc1 [Compound 3, H-sPEG4-[X]6-NH2] | 8.1 |
| 16 to 32 | 8 to 16 | 8 to 16 | 16 (≈ 7.44 µM) | >64 | 39.2 | 41.3 | 42.1 | 41.4 | >64 | 4 (≈ 1.86 µM) | 4 to 8 | >64 | >64 |  | NCCCC[C@H](NC(=O)CCN(Cc1ccc(F)cc1)C(=O)[C@H](CCCCN)NC(=O)CCN(Cc1ccc(F)cc1)C(=O)[C@H](CCCCN)NC(=O)CCN(Cc1ccc(F)cc1)C(=O)[C@H](CCCCN)NC(=O)CCN(Cc1ccc(F)cc1)C(=O)[C@H](CCCCN)NC(=O)CCN(Cc1ccc(F)cc1)C(=O)[C@H](CCCCN)NC(=O)COCCOCCN)C(=O)N(CCC(=O)NCCOCCOCC(N)=O)Cc1ccc(F)cc1 [Compound 4, H-sPEG2-[X]6-sPEG2-NH2] | 5.4 |
| 32 (≈ 13.6 µM) | 8 to 16 | 16 (≈ 6.79 µM) |  | >64 | 40.0 | 42.2 | 43.2 | 42.5 | >64 |  | 16 (≈ 6.79 µM) | >64 | >64 | > 64 | NCCCC[C@H](NC(=O)CCN(Cc1ccc(F)cc1)C(=O)[C@H](CCCCN)NC(=O)CCN(Cc1ccc(F)cc1)C(=O)[C@H](CCCCN)NC(=O)CCN(Cc1ccc(F)cc1)C(=O)[C@H](CCCCN)NC(=O)CCN(Cc1ccc(F)cc1)C(=O)[C@H](CCCCN)NC(=O)CCN(Cc1ccc(F)cc1)C(=O)[C@H](CCCCN)NC(=O)CCOCCOCCOCCOCCN)C(=O)N(CCC(=O)NCCOCCOCCOCCOCCC(N)=O)Cc1ccc(F)cc1 [Compound 5, H-sPEG4-[X]6-sPEG4-NH2] | 6.4 |
